Reference: paper PMC6959985 (Analytical chemistry, 2019)
Where no end group is shown, it is not given here.

Tests used:
KLHDC2 [1] = biological target: T1, KLHDC2 (Homo sapiens, UniProt Q9Y2U9)
T1 sequence (Q9Y2U9 1-406): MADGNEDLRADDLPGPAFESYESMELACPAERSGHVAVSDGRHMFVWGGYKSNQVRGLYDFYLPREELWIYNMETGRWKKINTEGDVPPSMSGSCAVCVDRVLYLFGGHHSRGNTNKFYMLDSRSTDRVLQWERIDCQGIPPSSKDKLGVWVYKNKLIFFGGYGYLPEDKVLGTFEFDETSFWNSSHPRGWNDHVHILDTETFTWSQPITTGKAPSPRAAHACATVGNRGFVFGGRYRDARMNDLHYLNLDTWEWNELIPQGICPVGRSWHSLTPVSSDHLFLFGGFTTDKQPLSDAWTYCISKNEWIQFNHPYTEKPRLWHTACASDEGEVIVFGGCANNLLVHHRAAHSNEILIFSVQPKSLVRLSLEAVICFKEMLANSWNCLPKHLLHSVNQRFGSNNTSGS

KLHDC2 [2] = biological target: T1, KLHDC2; settings: recently characterized selenoprotein fragment, comparison value; ref [19]; cited from earlier work
KLHDC2 [3] = biological target: T1, KLHDC2; assay: Luminescence-based competition assay; settings: discussion of binding of both peptides; HLRGSPPPMAGG characterized in ref [19]
[4] = biological target: T2, KLHDC2 (as used in the AlphaScreen competition assay) (human, UniProt Q9Y2U9 1-406); assay: AlphaScreen or HTRF
T2 sequence (looked up): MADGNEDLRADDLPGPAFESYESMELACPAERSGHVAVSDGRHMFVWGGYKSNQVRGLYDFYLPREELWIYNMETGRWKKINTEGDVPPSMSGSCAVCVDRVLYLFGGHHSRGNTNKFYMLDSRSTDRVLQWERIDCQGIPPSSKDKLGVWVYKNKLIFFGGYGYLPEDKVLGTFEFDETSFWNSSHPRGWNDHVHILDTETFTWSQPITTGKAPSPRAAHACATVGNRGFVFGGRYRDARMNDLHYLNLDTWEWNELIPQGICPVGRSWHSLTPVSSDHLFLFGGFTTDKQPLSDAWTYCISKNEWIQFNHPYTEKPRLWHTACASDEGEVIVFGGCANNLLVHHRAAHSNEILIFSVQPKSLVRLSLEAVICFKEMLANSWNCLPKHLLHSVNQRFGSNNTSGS

Molecule	Identification as interacting peptide by native top-down MS (KLHDC2 [1])	also measured
ASDEGEVIVFGG [ASDEGEVIVFGG]	identified using native top-down MS	
EKGGGSGGG	identified using native top-down MS	
GGGSGGG	identified using native top-down MS	
HLRGSPPPMAGG		IC50 (KLHDC2 [2]): 3.4 nM; Binding to KLHDC2 (KLHDC2 [3]): extremely tight binding
ASDEGEVIVFGG [synthesized peptide F (ASDEGEVIVFGG)]		IC50 [4]: 5.3 nM
